Experimental data published in patent publication US20220233624A9, “ANTI-CANCER AND ANTI-PROLIFERATIVE COMPOSITIONS, AND METHODS FOR THEIR USE IN TREATING CANCER” (Natreon, Inc., priority 2020, published 2022).
Where “and” joins values, the source holds several entries; their conditions need not be identical. Equal entries are not always repeated. Where two headings read alike, the source gives them in different places. Marks after values point to notes of the source that are not given here.

Experiments:
[1] = test system: colon cancer cells (cell line HT-29); details: J. Surg. Res. 111(1):63-69 (2003); read-out: IC50 (published); cited from earlier work
[2] = test system: Breast Cancer PDCs, Triple negative (TN), SB 36344; assay: Anti-proliferation assay on breast cancer TN PDCs; type: cell-based, human; details: drug alone @ 3 uM; for inhibition at 3 µM: Homo sapiens; for % Inhibition, single replicates: 3 µM
Protocol: (§1) The outermost rows/columns of the plates were filled with PBS (pH 7.4) to avoid an edge-effect and were considered as blanks. Standardized aqueous extracts identified in Table 2 were prepared in main stock solutions by dissolving 1 mg of extract in 1 ml PBS (phosphate-buffered saline, pH 7.4). […] The plate was incubated in a CO2 incubator for 0/N incubation for 24 hours. […] Once extracts were added to incubated cells and mixed gently, the plate was given a brief spin and incubated in the CO2 incubator for 72 hours. The plate was removed from the incubator and 10 ul of detection reagent (CellTiterGlo®; Promega Corporation, Wisconsin, USA) added to each well of the 384 well plate. […] The assay described above is a two-dimensional (2D) assay.

[3] = test system: Breast Cancer PDCs, ER/PR+ Her2 equivocal (HR+); assay: Anti-proliferation assay on breast cancer HR+ PDCs; type: cell-based, human; details: drug alone @ 3 uM; for inhibition at 3 µM: Homo sapiens; for % Inhibition, single replicates: 3 µM
Protocol: as §1

[4] = test system: Breast Cancer PDCs, ER/PR− Her2+ (Her2+); assay: Anti-proliferation assay on breast cancer Her2+ PDCs; type: cell-based, human; details: drug alone @ 3 uM; for inhibition at 3 µM: Homo sapiens; for % Inhibition, single replicates: 3 µM
Protocol: as §1

[5] = test system: TN Breast Cancer cell line MDAMB-231; assay: Anti-proliferation assay on MDAMB-231 cells (72 h and 120 h); type: cell-based; details: Homo sapiens, MDA-MB-231, 3 uM
Protocol: Also, AyuFlex®, Capros®, and Ayuric® were tested in the anti-proliferative assay discussed above in the TN Breast Cancer cell line MDAMB-231. AyuFlex®, Capros®, and Ayuric® were incubated for 72 hours and 120 hours. The dose-response efficacy of AyuFlex®, Capros®, and Ayuric® after a 72-hour period of incubation was similar to that observed after a 120-hour period of incubation with the MDAMB-231 cells. Without being bound by theory, possibly this was due to saturation of cell growth at the 120-hour time-point.

[6] = test system: TN breast cancer PDCs SB 30750; assay: Anti-proliferation assay on TN breast cancer PDCs SB 30750; type: cell-based; details: Homo sapiens, 3 uM, 72 h
Protocol: In this Example, AyuFlex®, Capros®, and Ayuric® were each applied to different PDCs than previous tests, TN breast cancer PDCs SB 30750, and tested via the anti-proliferation assay described above. […] Incubation times were 72 hours.

[7] = test system: colon cancer cells (cell line HT-29); assay: Anti-proliferation assay on colon cancer cells; type: cell-based; details: Homo sapiens
Protocol: (§2) Anti-proliferative and anti-cancer activity of extracts of this invention on non-small cell lung cancer cells and colon cancer cells were assessed generally as described in Example I and are discussed below. […] As noted throughout this application, the below data is intended to describe the present invention but not to be limiting.
(§3) Non-small cell lung cancer cells (cell line NCI-H-358) and colon cancer cells (cell line HT-29) were plated in a 384-well plate in amounts of about 1.25 k cells/well. […] Wells with untreated cells and with plain media were also included as controls. Plates passed quality control parameters.

[8] = test system: Non-small cell lung cancer cells (cell line NCI-H-358); details: Intl. J. Oncol. 31:241-252 (2007); read-out: IC50 (published); cited from earlier work
[9] = test system: Ovarian cancer (OVCAR-3) cells; assay: Anti-proliferation assay on ovarian cancer cells; type: cell-based; details: Homo sapiens
Protocol: (§4) Cells were plated at 1.25 k/well in 384 well plates. […] Anti-proliferative assays were generally performed as discussed in Example I above, in triplicate, with detection reagent CellTiterGlo. Tables 80-82 show data for controls for assays on prostate cancer (PC-3 cells), and that the data passed quality control parameters. Tables 83-85 show data for controls for assays on ovarian cancer (OVCAR-3 cells), and that the data passed quality control parameters.

[10] = test system: Non-small cell lung cancer cells (cell line NCI-H-358); assay: Anti-proliferation assay on non-small cell lung cancer cells; type: cell-based; details: Homo sapiens, NCI-H358
Protocol: as §2, §3

[11] = test system: SHP-77 (small cell lung cancer) cells; assay: Anti-proliferation assay on small cell lung cancer cells; type: cell-based; details: Homo sapiens, SHP77
Protocol: SHP-77 (small cell lung cancer) cells were incubated for 72 hours with 100 ug/ml, 30 ug/ml, and 10 ug/ml each of AyuFlex®, Capros® Phyto-BGS®, PrimaVie®, Sensoril®, Ayuric®, and Crominex®, and tested according to the anti-proliferative assay described above. Cells were plated at 1.25 k/well in 384 well plates. Standard of care drug docetaxel was also tested at a 10 uM concentration as a control. Anti-proliferative assays were generally performed as discussed above, in triplicate, with detection reagent CellTiterGlo® as discussed for instance in Example I. Tables 77-79 show data for controls and that the data passed quality control parameters.

[12] = test system: Prostate cancer (PC-3) cells; assay: Anti-proliferation assay on prostate cancer cells; type: cell-based; details: Homo sapiens
Protocol: as §4

[13] = read-out: % Inhibition, single replicates
[14] = 72 hour incubation, read-out: % Inhibition Avg
[15] = 72 hour incubation, read-out: % Inhibition n1
[16] = 72 hour incubation, read-out: % Inhibition n2
[17] = 72 hour incubation, read-out: % Inhibition n3
[18] = 120 hour incubation, read-out: % Inhibition Avg
[19] = 120 hour incubation, read-out: % Inhibition n1
[20] = 120 hour incubation, read-out: % Inhibition n2
[21] = 120 hour incubation, read-out: % Inhibition n3
[22] = drug 10 uM, read-out: inhibition of proliferation
[23] = plate control @ 10 uM, read-out: % Inhibition Average (SD)
[24] = plate control @ 10 uM, read-out: % Inhibition n1
[25] = plate control @ 10 uM, read-out: % Inhibition n2
[26] = plate control @ 10 uM, read-out: % Inhibition n3
[27] = 10 uM, 72 h, read-out: % Inhibition Average (SD)
[28] = 10 uM, 72 h, read-out: % Inhibition n1
[29] = 10 uM, 72 h, read-out: % Inhibition n2
[30] = 10 uM, 72 h, read-out: % Inhibition n3
[31] = drug 10 uM, read-out: inhibition

In the case of `O=c1[nH]cc(F)c(=O)[nH]1` [5-FU, 5-fluorouracil], the IC50 [1] is given as 13 µM, the inhibition at 3 µM ([2]; read-out: % Inhibition Avg) is given as 38% and the inhibition at 3 µM [2, 13] is given as 48%. For the same molecule, the “% Inhibition, single replicates” value [2] was 33%, the inhibition at 3 µM ([3]; read-out: % Inhibition Avg) was roughly 28% and the “% Inhibition Avg” value [3] was 29%. The “% Inhibition, single replicates” value [3] was 42% and 20% and 23%, the inhibition at 3 µM [4] was 18% and the “% Inhibition, single replicates” value [4] was 41* % and 16% and 19%. The inhibition at 3 µM [5, 14] was 4%, the inhibition at 3 µM [5, 15] was 21% and the inhibition at 3 µM [5, 16] was -5%. For the same molecule, the inhibition at 3 µM [5, 17] was -4%, the inhibition at 3 µM [5, 18] was -8% and the inhibition at 3 µM [5, 19] was 20%. It also gave an inhibition at 3 µM [5, 20] of -10%, an inhibition at 3 µM [5, 21] of -5% and an inhibition at 3 µM ([6]; read-out: % Inhibition Avg) of 24%. The inhibition at 3 µM ([6]; read-out: % Inhibition n1) was 44%, the inhibition at 3 µM ([6]; read-out: % Inhibition n2) was 14% and the inhibition at 3 µM ([6]; read-out: % Inhibition n3) was 14%. For the same molecule, the inhibition at 10 µM [7, 22] was 12%, the inhibition at 10 µM [7, 23] was 12% and the inhibition at 10 µM [7, 24] was 20%. It also gave an inhibition at 10 µM [7, 25] of 7% and an inhibition at 10 µM [7, 26] of 10%.

In the case of `CC(=O)O[C@@]12CO[C@@H]1C[C@H](O)[C@@]1(C)C(=O)[C@H](O)C3=C(C)[C@@H](OC(=O)[C@H](O)[C@@H](NC(=O)OC(C)(C)C)c4ccccc4)C[C@@](O)([C@@H](OC(=O)c4ccccc4)[C@H]21)C3(C)C` [Docetaxel, docetaxel], the IC50 [8] is given as 0.367 µM, the inhibition at 10 µM [9, 27] is given as 66% and the inhibition at 10 µM [9, 28] is given as 65%. It also gave an inhibition at 10 µM [9, 29] of 68%, an inhibition at 10 µM [9, 30] of 65% and an inhibition at 10 µM [9, 31] of 66%. For the same molecule, the inhibition at 3 µM ([2]; read-out: % Inhibition Avg) was roughly 48%, the inhibition at 3 µM [2, 13] was 56% and the “% Inhibition, single replicates” value [2] was 44% and 43%. For the same molecule, the inhibition at 10 µM [10, 22] was 58%, the inhibition at 10 µM [10, 23] was 58% and the inhibition at 10 µM [10, 24] was 63%. The inhibition at 10 µM [10, 25] was 55%, the inhibition at 10 µM [10, 26] was 58% and the inhibition at 10 µM [11, 27] was 90%. For the same molecule, the inhibition at 10 µM [11, 28] was 90%, the inhibition at 10 µM [11, 29] was 91% and the inhibition at 10 µM [11, 30] was 89%. The inhibition at 10 µM [11, 31] was 90%, the inhibition at 3 µM ([3]; read-out: % Inhibition Avg) was roughly 59% and the inhibition at 3 µM [3, 13] was 67%. The “% Inhibition, single replicates” value [3] was 53% and 58%, the inhibition at 10 µM [12, 27] was 58% and the inhibition at 10 µM [12, 28] was 53%. The inhibition at 10 µM [12, 29] was 67%, the inhibition at 10 µM [12, 30] was 56% and the inhibition at 10 µM [12, 31] was 58%. The inhibition at 3 µM [4] was roughly 50%, the “% Inhibition, single replicates” value [4] was 30* % and 43% and 57% and the inhibition at 3 µM [5, 14] was 56%. It also gave an inhibition at 3 µM [5, 15] of 67%, an inhibition at 3 µM [5, 16] of 50% and an inhibition at 3 µM [5, 17] of 52%. The inhibition at 3 µM [5, 18] was 75%, the inhibition at 3 µM [5, 19] was 78% and the inhibition at 3 µM [5, 20] was 71%. For the same molecule, the inhibition at 3 µM [5, 21] was 76%, the inhibition at 3 µM ([6]; read-out: % Inhibition Avg) was 56% and the inhibition at 3 µM ([6]; read-out: % Inhibition n1) was 68%. It also gave an inhibition at 3 µM ([6]; read-out: % Inhibition n2) of 52% and an inhibition at 3 µM ([6]; read-out: % Inhibition n3) of 47%.
